Patent publication US20100210708A1, “COMPOUND PROFILING METHOD” (CYTOPATHFINDER, INC., priority 2007, published 2010)

Experiments:
[1] = test system: MCF7; conditions: breast cancer cells MCF7; cited from earlier work
[2] = test system: SK-BR-3; conditions: breast cancer cell SK-BR-3; stated as known; cited from earlier work
[3] = test system: T-47D cell; conditions: human derived breast cancer, compared with SK-BR-3; cited from earlier work
[4] = test system: SHSY5Y cell; assay: Exposure of SHSY5Y neuroblastoma cells to stimulants: marker enzyme expression and extension of neuron projection; assay type: cell-based; conditions: a neuroblastoma from human
Source text: The functions of (1) and (2) are different, but share the same properties in terms of extension of neuron projection. Therefore, cellular components necessary for these two intracellular alteration were specified experimentally by means of RNA interference method. As such, it was obtained that the component collection (3) necessary for the alteration from SHSY5Y to (1) are {JAK1, JAK3, ROR, and RET}. On the other hand, the component collection (4) necessary for the alteration from SHSY5Y cells to (2), are {NTRK1, EPHB2, INSR, RDGFRA, ROR and RET}. When comparing and calculation of intersection is done for (3) and (4), the intersection (5) was obtained to read {ROR and RET}. Next, the collection (6) {JAK1 and JAK3} by subtraction of (3)-(5) and the collection (5) were analyzed in terms of an intermolecular interaction, and the existence of a pathway of a molecular signals from (6) to (5) (FIG. 3A) was determined. Furthermore, the collection (7) which was obtained by the subtraction of (4)-(5), and the collection (5) were analyzed in terms of an intermolecular interaction, and the existence of a pathway of molecular signals from (7) to (5) (FIG. 3B) was further determined. The common components and pathway relating to the projection extension by retinoic acid (RA) and Nerve Growth Factor (NGF) are shown in FIG. 4.

Compound	DXR resistance [1]	growth inhibition [2]	DXR sensitivity [3]	expression of tyrosine hydroxylase [4]	extension of neuron projection [4]	neuron cell type formed [4]
COc1cccc2c1C(=O)c1c(O)c3c(c(O)c1C2=O)C[C@@](O)(C(=O)CO)C[C@@H]3O[C@H]1C[C@H](N)[C@H](O)[C@H](C)O1 [doxorubicin]	having DXR resistance	subjected to growth inhibition	same DXR sensitivity as the SK-BR-3	–	–	–
Nerve Growth Factor: Nerve Growth Factor (NGF), stimulant triggering neurite outgrowth in SHSY5Y cells	–	–	–	tyrosine hydroxylase was expressed	caused extension of neuron projection	forms dopaminergic neuron cells
